Results: PubChem BioAssay AID493086 (The Scripps Research Institute Molecular Screening Center, 2011)
Calls of active or inactive are those of the source.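 The calls were made as follows: active = IC50 at or below 10 µM; inactive = IC50 above 10 µM.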

Target: Induced myeloid leukemia cell differentiation protein Mcl-1 (Homo sapiens) (UniProt Q07820)
Assay: MCL1 binding to BIM-BH3 peptide, inhibitors, late-stage follow-up, biochemical, fluorescence polarization, assay provider data, powder samples (AID 493086)
Settings: GST-MCL1 / FITC-BIM-BH3 fluorescence polarization

Chain of Induced myeloid leukemia cell differentiation protein Mcl-1 (Homo sapiens) (Q07820 whole entry, looked up): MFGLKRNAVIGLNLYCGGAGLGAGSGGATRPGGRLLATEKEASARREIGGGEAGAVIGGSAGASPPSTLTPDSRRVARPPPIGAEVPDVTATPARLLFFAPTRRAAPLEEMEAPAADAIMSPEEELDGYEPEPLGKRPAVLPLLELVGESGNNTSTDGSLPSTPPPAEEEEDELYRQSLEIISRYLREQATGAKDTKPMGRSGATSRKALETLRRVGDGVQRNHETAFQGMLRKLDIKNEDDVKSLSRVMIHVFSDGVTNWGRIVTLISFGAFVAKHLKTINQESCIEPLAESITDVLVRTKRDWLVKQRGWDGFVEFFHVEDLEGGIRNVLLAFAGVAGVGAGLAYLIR

SMILES	IC50
O=C(NCC1CCCO1)c1cc(-c2ccco2)nc2ccccc12 (stereo unspecified)	inactive
CC1CCCN(C(=O)c2cc(-c3ccco3)nc3ccccc23)C1 (stereo unspecified)	> 20 µM (inactive)
CCCCCCNC(=O)c1cc(-c2ccco2)nc2ccccc12	> 20 µM (inactive)
COc1ccc(Cc2nnc(NC(=O)Cc3ccccc3C)s2)cc1OC	> 20 µM (inactive)
COc1ccc(CC(=O)Nc2nnc(Cc3ccc(OC)c(OC)c3)s2)cc1	> 20 µM (inactive)
CCCCN(C(=O)c1cc(-c2ccco2)nc2ccccc12)c1c(N)n(CCC)c(=O)[nH]c1=O	> 20 µM (inactive)
COc1ccc(Cc2nnc(NC(=O)Cc3cccnc3)s2)cc1OC	> 20 µM (inactive)
COc1ccc(Cc2nnc(NC(=O)Cc3ccsc3)s2)cc1OC	> 20 µM (inactive)
COc1ccc(Cc2nnc(NC(=O)Cc3csc4ccccc34)s2)cc1OC	> 20 µM (inactive)
COc1ccc(Cc2nnc(NC(=O)CCc3cccs3)s2)cc1OC	> 20 µM (inactive)
CN(CCOc1ccccc1)C(=O)c1cc(-c2ccco2)nc2ccccc12	> 20 µM (inactive)
COc1ccc(Cc2nnc(NC(=O)Cc3ccc(C)cc3)s2)cc1OC	> 20 µM (inactive)
O=C(Nc1ccccc1N1CCOCC1)c1cc(-c2ccco2)nc2ccccc12	inactive
COc1ccc(Cc2nnc(NC(=O)Cc3ccc(-c4ccccc4)cc3)s2)cc1OC	> 20 µM (inactive)
COCCN(C(=O)c1cc(-c2ccco2)nc2ccccc12)c1c(N)n(Cc2ccccc2)c(=O)[nH]c1=O	3.4 µM
CCC(=O)Nc1nnc(Cc2ccccc2)s1	> 20 µM (inactive)
CC(C)CCNC(=O)c1cc(-c2ccco2)nc2ccccc12	> 20 µM (inactive)
CCCN(C(=O)c1cc(-c2ccco2)nc2ccccc12)c1c(N)n(Cc2ccccc2)c(=O)[nH]c1=O	inactive
CCCn1c(N)c(N(CCOC)C(=O)c2cc(-c3ccco3)nc3ccccc23)c(=O)[nH]c1=O	> 20 µM (inactive)

SMILES	IC50
Cc1ccc(-c2cc(C(=O)N3CCCC(C(F)(F)F)C3)c3ccccc3n2)o1 (stereo unspecified)	> 20 µM (inactive)
COc1ccc(Cc2nnc(NC(=O)Cc3c[nH]c4ccccc34)s2)cc1OC	> 20 µM (inactive)
O=C(c1cc(-c2ccco2)nc2ccccc12)N1CCN(c2ccc(F)cc2)CC1	> 20 µM (inactive)
COCCCN(C(=O)c1cc(-c2ccco2)nc2ccccc12)c1c(N)n(Cc2ccccc2)c(=O)[nH]c1=O	> 20 µM (inactive)
COc1ccc(Cc2nnc(NC(=O)Cc3ccncc3)s2)cc1OC	> 20 µM (inactive)
CCN(CC)CCNC(=O)c1cc(-c2ccco2)nc2ccccc12	> 20 µM (inactive)
O=C(NC(=S)Nc1cccc(S(=O)(=O)NC2=NCCC2)c1)c1cc(-c2ccco2)nc2ccccc12	> 20 µM (inactive)
CCCC(=O)Nc1nnc(Cc2ccccc2)s1	> 20 µM (inactive)
O=C(NC1CC1)c1cc(-c2ccco2)nc2ccccc12	4.4 µM
COc1ccc(Cc2nnc(NC(=O)Cc3ccc4c(c3)OCO4)s2)cc1OC	> 20 µM (inactive)
O=C(CCn1nnc2ccccc21)Nc1nnc(Cc2ccc(F)cc2)s1	> 20 µM (inactive)
CCCCn1c(N)c(N(CCOC)C(=O)c2cc(-c3ccco3)nc3ccccc23)c(=O)[nH]c1=O	> 20 µM (inactive)
CCOC(=O)c1cc(-c2ccco2)nc2c1c(C)nn2-c1cccc(Cl)c1	> 20 µM (inactive)
COc1cccc(CC(=O)Nc2nnc(Cc3ccc(OC)c(OC)c3)s2)c1	> 20 µM (inactive)
COc1ccc(Cc2nnc(NC(=O)Cc3sc(=S)[nH]c3C)s2)cc1OC	> 20 µM (inactive)
COc1ccccc1CC(=O)Nc1nnc(Cc2ccc(OC)c(OC)c2)s1	> 20 µM (inactive)
COc1ccc(Cc2nnc(NC(=O)Cc3ccc(Oc4ccccc4)cc3)s2)cc1OC	> 20 µM (inactive)
CCCCn1c(N)c(N(CC(C)C)C(=O)c2cc(-c3ccco3)nc3ccccc23)c(=O)[nH]c1=O	> 20 µM (inactive)
CCOC(=O)c1cc(-c2ccco2)nc2c1c(C)nn2-c1ccccc1	> 20 µM (inactive)

SMILES	IC50
CN(C)C(CNC(=O)c1cc(-c2ccco2)nc2ccccc12)c1ccccc1 (stereo unspecified)	> 20 µM (inactive)
CCCCn1c(N)c(N(CCC(C)C)C(=O)c2cc(-c3ccco3)nc3ccccc23)c(=O)[nH]c1=O	> 20 µM (inactive)
COc1ccc(Cc2nnc(NC(=O)Cc3cccs3)s2)cc1	> 20 µM (inactive)
CN(CCOc1ccc(Cl)cc1)C(=O)c1cc(-c2ccco2)nc2ccccc12	> 20 µM (inactive)
COc1ccc(Cc2nnc(NC(=O)Cc3ccc4ccccc4c3)s2)cc1OC	> 20 µM (inactive)
NS(=O)(=O)c1ccc(CCNC(=O)c2cc(-c3ccco3)nc3ccccc23)cc1	> 20 µM (inactive)
CCOC(=O)C1CCCN(C(=O)c2cc(-c3ccco3)nc3ccccc23)C1 (stereo unspecified)	5.5 µM
CCN1CCN(C(=O)c2cc(-c3ccco3)nc3ccccc23)CC1	6.7 µM
COC(=O)C1CCN(C(=O)c2cc(-c3ccco3)nc3ccccc23)CC1	7.3 µM
CN(CC(=O)Nc1ccc(F)cc1)C(=O)c1cc(-c2ccco2)nc2ccccc12	> 20 µM (inactive)
O=C(c1cc(-c2ccco2)nc2ccccc12)N(Cc1nnc(-c2ccc(Cl)cc2)o1)C1CC1	> 20 µM (inactive)
COc1ccc(Cc2nnc(NC(=O)C(F)c3ccccc3)s2)cc1OC (stereo unspecified)	> 20 µM (inactive)
Cc1ccc(NC(=O)c2cc(-c3ccco3)nc3ccccc23)cc1S(=O)(=O)N1CCOCC1	inactive
O=C(c1cc(-c2ccco2)nc2ccccc12)N1CCN(Cc2ccccc2)CC1	> 20 µM (inactive)
O=C(NCCCN1CCOCC1)c1cc(-c2ccco2)nc2ccccc12	> 20 µM (inactive)
O=C(CCn1nnc2ccccc21)Nc1nnc(Cc2ccccc2)s1	> 20 µM (inactive)
COc1ccc(Cc2nnc(NC(=O)Cc3ccccn3)s2)cc1OC	> 20 µM (inactive)
Cc1ccc(-c2cc(C(=O)N3CCN(c4ncccn4)CC3)c3cc(Br)ccc3n2)o1	inactive
COc1ccc(Cc2nnc(NC(=O)Cc3cccs3)s2)cc1OC	> 20 µM (inactive)

Now from value to compound:

IC50	SMILES
> 20 µM (inactive)	Cc1ccc(-c2cc(C(=O)NCCN3CCOCC3)c3ccccc3n2)o1
inactive	Cc1ccc(-c2cc(C(=O)Nc3ccccn3)c3ccccc3n2)o1
> 20 µM (inactive)	Cc1ccc(-c2cc(C(=O)N3CCOCC3)c3ccccc3n2)o1
> 20 µM (inactive)	COc1ccc(CCNC(=O)c2cc(-c3ccco3)nc3ccccc23)cc1
> 20 µM (inactive)	COc1ccc(NC(=O)CN(C)C(=O)c2cc(-c3ccc(C)o3)nc3ccccc23)cc1
> 20 µM (inactive)	COc1cccc(NC(=O)CN(C)C(=O)c2cc(-c3ccc(C)o3)nc3ccccc23)c1
inactive	Cc1ccc(NC(=O)c2cc(-c3ccc(C)o3)nc3ccccc23)nc1
inactive	O=C(Nc1nncs1)c1cc(-c2ccco2)nc2ccccc12
> 20 µM (inactive)	CC(=O)N1CCN(C(=O)c2cc(-c3ccc(C)o3)nc3ccccc23)CC1
> 20 µM (inactive)	Cc1ccc(-c2cc(C(=O)Nc3ccccc3C)c3ccccc3n2)o1
> 20 µM (inactive)	Cc1ccc(-c2cc(C(=O)Nc3ccccc3C(N)=O)c3ccccc3n2)o1
> 20 µM (inactive)	Cc1ccc(-c2cc(C(=O)N3CC(C)CC(C)C3)c3ccccc3n2)o1 (stereo unspecified)
> 20 µM (inactive)	Cc1ccc2nc(NC(=O)c3cc(-c4ccco4)nc4ccccc34)sc2c1
> 20 µM (inactive)	COc1ccc(NC(=O)c2cc(-c3ccc(C)o3)nc3ccccc23)cc1OC
> 20 µM (inactive)	COc1cccc(NC(=O)c2cc(-c3ccc(C)o3)nc3ccccc23)c1
> 20 µM (inactive)	COc1ccc(NC(=O)c2cc(-c3ccc(C)o3)nc3ccccc23)cc1
inactive	Cc1nnc(NC(=O)c2cc(-c3ccco3)nc3ccccc23)s1
> 20 µM (inactive)	Cc1ccc(S(=O)(=O)N(C)C)cc1NC(=O)c1cc(-c2ccco2)nc2ccccc12
> 20 µM (inactive)	O=C(Nc1cccc(F)c1)c1cc(-c2ccco2)nc2ccccc12
> 20 µM (inactive)	Cc1ccc(-c2cc(C(=O)NCC(c3ccccc3)N(C)C)c3ccccc3n2)o1 (stereo unspecified)

IC50	SMILES
> 20 µM (inactive)	COc1ccc(NC(=O)c2cc(-c3ccc(C)o3)nc3ccccc23)c(OC)c1
> 20 µM (inactive)	Cc1ccc(-c2cc(C(=O)N(C)CC(=O)Nc3ccccc3Br)c3ccccc3n2)o1
> 20 µM (inactive)	CC(=O)c1cccc(NC(=O)c2cc(-c3ccco3)nc3ccccc23)c1
> 20 µM (inactive)	Cc1ccc(-c2cc(C(=O)Nc3nccs3)c3ccccc3n2)o1
inactive	O=C(Nc1nccs1)c1cc(-c2ccco2)nc2ccccc12
> 20 µM (inactive)	CCOc1cc(N2CCOCC2)c(OCC)cc1NC(=O)c1cc(-c2ccco2)nc2ccccc12
inactive	Cc1cccc(NC(=O)c2cc(-c3ccco3)nc3ccccc23)n1
> 20 µM (inactive)	Cc1ccc(-c2cc(C(=O)N3CC(C)OC(C)C3)c3ccccc3n2)o1 (stereo unspecified)
> 20 µM (inactive)	Cc1ccc(NC(=O)c2cc(-c3ccc(C)o3)nc3ccccc23)cc1
> 20 µM (inactive)	COc1cccc(NC(=O)c2cc(-c3ccco3)nc3ccccc23)c1
inactive	Cc1csc(NC(=O)c2cc(-c3ccco3)nc3ccccc23)n1
> 20 µM (inactive)	CCc1nnc(NC(=O)c2cc(-c3ccc(C)o3)nc3ccccc23)s1
inactive	Cc1ccc(-c2cc(C(=O)Nc3cccnc3)c3ccccc3n2)o1
> 20 µM (inactive)	Cc1ccc(-c2cc(C(=O)Nc3cccc(S(=O)(=O)N(C)C)c3)c3ccccc3n2)o1
> 20 µM (inactive)	COc1ccc(NC(=O)c2cc(-c3ccco3)nc3ccccc23)cc1
> 20 µM (inactive)	COc1ccccc1NC(=O)c1cc(-c2ccc(C)o2)nc2ccccc12
> 20 µM (inactive)	COc1cccc(NC(=O)CN(C)C(=O)c2cc(-c3ccco3)nc3ccccc23)c1
> 20 µM (inactive)	O=C(Nc1ccc(F)cc1F)c1cc(-c2ccco2)nc2ccccc12
> 20 µM (inactive)	O=C(Nc1nc2ccccc2s1)c1cc(-c2ccco2)nc2ccccc12
